Measured values from ChEMBL document CHEMBL1212727, “Design, synthesis and selection of DNA-encoded small-molecule libraries” (Nat Chem Biol, 2009).

molecular target: T1, Mitogen-activated protein kinase 14 (Homo sapiens, UniProt Q16539); assay: Inhibition of p38alpha assessed as inhibition of [gamma-33P]ATP incorporation into substrate after 4 hrs by radiometric assay
T1 sequence (Q16539 whole entry): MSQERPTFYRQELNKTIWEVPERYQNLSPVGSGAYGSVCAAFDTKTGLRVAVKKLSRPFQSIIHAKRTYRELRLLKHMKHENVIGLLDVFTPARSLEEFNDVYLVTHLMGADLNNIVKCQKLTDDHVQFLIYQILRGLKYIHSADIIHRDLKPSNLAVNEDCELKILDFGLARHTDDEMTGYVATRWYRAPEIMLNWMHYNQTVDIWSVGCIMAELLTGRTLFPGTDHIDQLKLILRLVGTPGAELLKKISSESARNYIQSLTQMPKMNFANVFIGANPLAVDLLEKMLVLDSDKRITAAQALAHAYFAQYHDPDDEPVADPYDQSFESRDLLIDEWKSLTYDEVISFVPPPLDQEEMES

Compound | IC50 [nM]
CONC(=O)c1ccc(C)c(Nc2nc(NCC3CCCC(CN)C3)nc(NC(C)C(C)(C)C)n2)c1 (stereo not drawn) | ≤ 2
CONC(=O)c1ccc(C)c(Nc2nc(NCC3CCCC(CN)C3)nc(NC3CCCCC3)n2)c1 (stereo not drawn) | ≤ 2
CONC(=O)c1ccc(C)c(Nc2nc(NCc3cccc(C)c3)nc(NC(C)C(C)(C)C)n2)c1 (stereo not drawn) | 15

molecular target: T2, Aurora kinase A (Homo sapiens, UniProt O14965); assay: Inhibition of Aurora A ATP-binding site assessed as inhibition of [gamma-33P]ATP incorporation into substrate by scintillation counting
T2 sequence (O14965 whole entry): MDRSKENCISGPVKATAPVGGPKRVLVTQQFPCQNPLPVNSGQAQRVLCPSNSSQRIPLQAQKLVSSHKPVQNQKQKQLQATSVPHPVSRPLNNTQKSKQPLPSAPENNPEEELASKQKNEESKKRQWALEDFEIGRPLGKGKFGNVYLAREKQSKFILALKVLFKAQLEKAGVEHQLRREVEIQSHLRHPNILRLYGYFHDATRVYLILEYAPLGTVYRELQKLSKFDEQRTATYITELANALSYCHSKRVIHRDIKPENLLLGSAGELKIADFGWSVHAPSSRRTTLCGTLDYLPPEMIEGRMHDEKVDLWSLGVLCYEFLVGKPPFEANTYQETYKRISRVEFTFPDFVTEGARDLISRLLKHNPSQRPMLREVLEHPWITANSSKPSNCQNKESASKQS

Compound | IC50 [nM]
CCCCN(C)c1nc(NCCc2ccccc2OC)nc(NC(Cc2c[nH]c3ncccc23)C(N)=O)n1 (stereo not drawn) | 3.8
CCCCN(C)c1nc(NCCc2ccccc2OC)nc(NCCc2c[nH]c3ncccc23)n1 | 1.2
COc1ccccc1CCNc1nc(NC(Cc2c[nH]c3ncccc23)C(N)=O)nc(N(C)[C@@H](C)c2ccccc2)n1 (stereo partly drawn) | 6.3
COc1ccccc1CCNc1nc(Nc2ccc3ncccc3c2)nc(NC(Cc2c[nH]c3ncccc23)C(N)=O)n1 (stereo not drawn) | 3.7
CNc1nc(NCCc2ccccc2OC)nc(Nc2ccc3ncccc3c2)n1 | 5.1

molecular target: T1, Mitogen-activated protein kinase 14; assay: Displacement of […] form p38alpha after 30 mins by luminescence assay

Compound | EC50 [nM]
CCOc1nc(N[C@@H](Cc2ccc3c(c2)COC(C)(C)O3)C(=O)NC)nc(-n2cnc3cc(C(=O)N4CCCc5ccccc54)ccc32)n1 | 2700
CCOc1nc(N[C@@H](Cc2ccc3c(c2)COC(C)(C)O3)C(=O)NC)nc(-n2cnc3ccc(C(=O)N4CCCc5ccccc54)cc32)n1 | ≤ 8
CNC(=O)[C@H](Cc1ccc2c(c1)COC(C)(C)O2)Nc1nc(O)nc(-n2cnc3cc(C(=O)N4CCCc5ccccc54)ccc32)n1 | 5200
CNC(=O)[C@H](Cc1ccc2c(c1)COC(C)(C)O2)Nc1nc(-n2cnc3ccc(C(=O)N4CCCc5ccccc54)cc32)nc(=O)[nH]1 | ≤ 7

molecular target: T2, Aurora kinase A; assay: Inhibition of Aurora A ATP-binding site

Compound | Ki [nM]
Cc1cc(Nc2cc(N3CCN(CC(=O)O)CC3)nc(Sc3ccc(NC(=O)C4CC4)cc3)n2)n[nH]1 | 20
